pIC50: −log10 of the molar value. Active and inactive are the calls of the source. The rule behind the calls is not given here.
Key:
NCI-H446 [1] = experiment: Effect on Akt protein expression in human NCI-H446 cells at 0.6 uM in presence of CPT by Western blot method; type: functional, cell-based
NCI-H1299 [2] = experiment: Induction of apoptosis in human NCI-H1299 cells assessed as activation of caspase-3/7 at 0.3 uM after 48 hrs by luciferase reporter gene assay; type: functional, cell-based
NCI-H446 [3] = experiment: Induction of apoptosis in human NCI-H446 cells at 0.6 uM up to 20 mins in presence of CPT by acridine orange/ ethidium bromide staining based fluorescence microscopic method relative to control; type: functional
NCI-H446 [4] = experiment: Effect on ERK1/2 protein expression in human NCI-H446 cells at 0.6 uM in presence of HCPT by Western blot method; type: functional, cell-based
NCI-H1299 [5] = experiment: Decrease in p38 MAPK protein expression in human NCI-H1299 cells at 0.3 uM in presence of CPT by Western blot method; type: functional, cell-based
NCI-H446 [6] = experiment: Induction of apoptosis in human NCI-H446 cells at 0.6 uM after 24 to 48 hrs by Annexin-V FITC/propidium iodide staining based flow cytometry; type: functional, cell-based
[7] = target: T1, MAP kinase p38 (Homo sapiens) (UniProt O15264+Q15759+Q16539+P53778); experiment: Increase in p38 MAPK phosphorylation in human NCI-H1299 cells at 0.3 uM in presence of HCPT by Western blot method; type: cell-based
NCI-H1299 [8] = experiment: Induction of apoptosis in human NCI-H1299 cells at 0.3 uM after 24 to 48 hrs by Annexin-V FITC/propidium iodide staining based flow cytometry; type: functional, cell-based
NCI-H460 [9] = experiment: Induction of apoptosis in human NCI-H460 cells assessed as activation of caspase-3/7 at 0.6 uM after 48 hrs by luciferase reporter gene assay; type: functional, cell-based
NCI-H446 [10] = experiment: Induction of apoptosis in human NCI-H446 cells assessed as increase in Bax expression at 0.6 uM in presence of CPT by Western blot method; type: functional, cell-based
NCI-H460 [11] = experiment: Cytotoxicity against human NCI-H460 cells assessed as reduction in cell viability after 48 hrs by MTT assay; type: functional, cell-based; conditions: NCI-H460, 48 h
NCI-H1299 [12] = experiment: Cytotoxicity against human NCI-H1299 cells assessed as reduction in cell viability after 48 hrs by MTT assay; type: functional, cell-based; conditions: NCI-H1299, 48 h
NCI-H460 [13] = experiment: Cytotoxicity against human NCI-H460 cells assessed as reduction in cell viability by measuring combinantion index at 0.3 to 0.6 uM after 48 hrs in presence of CPT by MTT assay; type: functional
NCI-H446 [14] = experiment: Cytotoxicity against human NCI-H446 cells assessed as reduction in cell viability by measuring combinantion index at 0.3 to 0.6 uM after 48 hrs in presence of CPT by MTT assay; type: functional
NCI-H1299 [15] = experiment: Cytotoxicity against human NCI-H1299 cells assessed as reduction in cell viability at 0.3 to 0.6 uM after 48 hrs in presence of HCPT by MTT assay; type: functional, cell-based
[16] = target: T1, MAP kinase p38 (Homo sapiens); experiment: Increase in p38 MAPK phosphorylation in human NCI-H460 cells at 0.6 uM in presence of CPT by Western blot method; type: cell-based
[17] = target: T2, Mitogen-activated protein kinase; ERK1/ERK2 (Homo sapiens) (UniProt P27361+P28482); experiment: Decrease in ERK1/2 phosphorylation in human NCI-H460 cells at 0.6 uM in presence of CPT by Western blot method; type: cell-based
T2 sequence (P27361 whole entry, looked up): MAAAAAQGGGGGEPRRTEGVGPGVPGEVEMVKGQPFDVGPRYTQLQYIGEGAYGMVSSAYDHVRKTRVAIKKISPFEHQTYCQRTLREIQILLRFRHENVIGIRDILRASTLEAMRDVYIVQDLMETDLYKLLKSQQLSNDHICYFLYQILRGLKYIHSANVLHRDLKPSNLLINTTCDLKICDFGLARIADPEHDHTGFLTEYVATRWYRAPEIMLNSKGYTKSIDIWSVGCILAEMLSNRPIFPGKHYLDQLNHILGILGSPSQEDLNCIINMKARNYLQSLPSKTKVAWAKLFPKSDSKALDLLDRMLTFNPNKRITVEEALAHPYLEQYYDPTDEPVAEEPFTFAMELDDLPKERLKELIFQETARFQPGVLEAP
T2 sequence (P28482 whole entry, looked up): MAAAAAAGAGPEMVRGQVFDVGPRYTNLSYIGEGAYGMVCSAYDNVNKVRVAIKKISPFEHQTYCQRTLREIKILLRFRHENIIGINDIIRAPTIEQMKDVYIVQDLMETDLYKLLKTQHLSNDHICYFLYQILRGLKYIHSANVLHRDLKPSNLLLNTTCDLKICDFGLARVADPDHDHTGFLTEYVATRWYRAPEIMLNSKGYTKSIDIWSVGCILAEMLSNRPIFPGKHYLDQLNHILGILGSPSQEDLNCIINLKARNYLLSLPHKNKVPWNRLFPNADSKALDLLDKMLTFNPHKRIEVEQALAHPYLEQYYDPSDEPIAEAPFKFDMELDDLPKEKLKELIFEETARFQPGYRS

[18] = target: T2, Mitogen-activated protein kinase; ERK1/ERK2 (Homo sapiens); experiment: Decrease in ERK1/2 phosphorylation in human NCI-H460 cells at 0.6 uM in presence of HCPT by Western blot method; type: cell-based
[19] = target: T3, c-Jun N-terminal kinase, JNK (Homo sapiens) (UniProt P45983+P53779+P45984); experiment: Increase in JNK phosphorylation in human NCI-H460 cells at 0.6 uM in presence of CPT by Western blot method; type: cell-based
Homo sapiens [20] = species: Homo sapiens; experiment: Decrease in Akt phosphorylation in human NCI-H460 cells at 0.6 uM in presence of HCPT by Western blot method; type: cell-based
NCI-H1299 [21] = experiment: Cytotoxicity against human NCI-H1299 cells assessed as reduction in cell viability by measuring combinantion index at 0.3 to 0.6 uM after 48 hrs in presence of CPT by MTT assay; type: functional
NCI-H1299 [22] = experiment: Effect on ERK1/2 protein expression in human NCI-H1299 cells at 0.3 uM in presence of CPT by Western blot method; type: functional, cell-based
NCI-H446 [23] = experiment: Effect on p38 MAPK protein expression in human NCI-H446 cells at 0.6 uM in presence of CPT by Western blot method; type: functional, cell-based
[24] = target: T3, c-Jun N-terminal kinase, JNK (Homo sapiens); experiment: Increase in JNK phosphorylation in human NCI-H460 cells at 0.6 uM in presence of HCPT by Western blot method; type: cell-based
NCI-H446 [25] = experiment: Induction of apoptosis in human NCI-H446 cells at 0.6 uM in presence of CPT by Annexin-V FITC/propidium iodide staining based flow cytometry; type: functional, cell-based; conditions: TDE = time-dependent effect
NCI-H446 [26] = experiment: Induction of apoptosis in human NCI-H446 cells assessed as activation of caspase-3/7 at 0.6 uM after 48 hrs by luciferase reporter gene assay; type: functional, cell-based
NCI-H446 [27] = experiment: Cytotoxicity against human NCI-H446 cells assessed as reduction in cell viability at 0.3 to 0.6 uM after 48 hrs in presence of HCPT by MTT assay; type: functional, cell-based
NCI-H460 [28] = experiment: Induction of apoptosis in human NCI-H460 cells assessed as activation of caspase-3/7 at 0.6 uM after 48 hrs in presence of HCPT by luciferase reporter gene assay; type: functional, cell-based
NCI-H446 [29] = experiment: Induction of apoptosis in human NCI-H446 cells assessed as increase in caspase-9 expression at 0.6 uM in presence of HCPT by Western blot method; type: functional, cell-based
NCI-H446 [30] = experiment: Effect on p38 MAPK protein expression in human NCI-H446 cells at 0.6 uM in presence of HCPT by Western blot method; type: functional, cell-based
[31] = target: T1, MAP kinase p38 (Homo sapiens); experiment: Effect on p38 MAPK phosphorylation in human NCI-H446 cells at 0.6 uM in presence of HCPT by Western blot method; type: cell-based
Homo sapiens [32] = species: Homo sapiens; experiment: Decrease in Akt phosphorylation in human NCI-H460 cells at 0.6 uM in presence of CPT by Western blot method; type: cell-based
NCI-H1299 [33] = experiment: Induction of apoptosis in human NCI-H1299 cells assessed as increase in total apoptotic cells at 0.3 uM after 48 hrs in presence of CPT by Annexin-V FITC/propidium iodide staining based flow cytometry; type: functional, cell-based
NCI-H1299 [34] = experiment: Induction of apoptosis in human NCI-H1299 cells at 0.3 uM up to 20 mins in presence of CPT by acridine orange/ ethidium bromide staining based fluorescence microscopic method relative to control; type: functional
NCI-H1299 [35] = experiment: Induction of apoptosis in human NCI-H1299 cells assessed as activation of caspase-3/7 at 0.3 uM after 48 hrs in presence of CPT by luciferase reporter gene assay; type: functional, cell-based
[36] = target: T1, MAP kinase p38 (Homo sapiens); experiment: Effect on p38 MAPK phosphorylation in human NCI-H446 cells at 0.6 uM in presence of CPT by Western blot method; type: cell-based

C[C@@H]1CC[C@@]2(OC1)O[C@H]1C[C@H]3[C@@H]4CC=C5C[C@@H](O[C@@H]6O[C@H](CO)[C@@H](O[C@@H]7O[C@@H](CO)[C@H](O)[C@H]7O)[C@H](O)[C@H]6O[C@@H]6O[C@@H](C)[C@H](O)[C@@H](O)[C@H]6O)CC[C@]5(C)[C@H]4CC[C@]3(C)[C@H]1[C@@H]2C
Activity (NCI-H446 [1]): inactive | Activity (NCI-H1299 [2]): inactive | fold change (FC) (NCI-H446 [3]): 2 | Activity (NCI-H446 [4]): Active | Activity (NCI-H1299 [5]): Active | Activity (NCI-H446 [6]): Active | Activity [7]: Active | Activity (NCI-H1299 [8]): Active | Activity (NCI-H460 [9]): inactive | Activity (NCI-H446 [10]): Active | pIC50 (NCI-H460 [11]): > 6.00 | pIC50 (NCI-H1299 [12]): > 6.00 | CI (NCI-H460 [13]): <1 | CI (NCI-H446 [14]): <1 | Activity (NCI-H1299 [15]): Active | Activity [16]: Active | Activity [17]: Active | Activity [18]: Active | Activity [19]: Active | Activity (Homo sapiens [20]): Active | CI (NCI-H1299 [21]): <1 | Activity (NCI-H1299 [22]): inactive | Activity (NCI-H446 [23]): inactive | Activity [24]: Active | Activity (NCI-H446 [25]): Tde | Activity (NCI-H446 [26]): inactive | Activity (NCI-H446 [27]): Active | Activity (NCI-H460 [28]): Active | Activity (NCI-H446 [29]): Active | Activity (NCI-H446 [30]): inactive | Activity [31]: inactive | Activity (Homo sapiens [32]): Active | Activity (NCI-H1299 [33]): Active | fold change (FC) (NCI-H1299 [34]): 2 | Activity (NCI-H1299 [35]): Active | Activity [36]: inactive

Reference: ChEMBL document CHEMBL4000165, “Chemosensitizing effect of Paris Saponin I on Camptothecin and 10-hydroxycamptothecin in lung cancer cells via p38 MAPK, ERK, and Akt signaling pathways” (Eur J Med Chem, 2017)
